Measurements: patent US20250144172A1, “ANTI-FIBROTIC SIALIDASE INHIBITOR COMPOUNDS AND METHODS OF USE” (The Texas A&M University System, priority 2016, published 2025)

target: human NEU3 (Homo sapiens (Human), UniProt Q9UQ49); experiment: human NEU3 sialidase inhibition; conditions: not given
Sequence (Q9UQ49 whole entry): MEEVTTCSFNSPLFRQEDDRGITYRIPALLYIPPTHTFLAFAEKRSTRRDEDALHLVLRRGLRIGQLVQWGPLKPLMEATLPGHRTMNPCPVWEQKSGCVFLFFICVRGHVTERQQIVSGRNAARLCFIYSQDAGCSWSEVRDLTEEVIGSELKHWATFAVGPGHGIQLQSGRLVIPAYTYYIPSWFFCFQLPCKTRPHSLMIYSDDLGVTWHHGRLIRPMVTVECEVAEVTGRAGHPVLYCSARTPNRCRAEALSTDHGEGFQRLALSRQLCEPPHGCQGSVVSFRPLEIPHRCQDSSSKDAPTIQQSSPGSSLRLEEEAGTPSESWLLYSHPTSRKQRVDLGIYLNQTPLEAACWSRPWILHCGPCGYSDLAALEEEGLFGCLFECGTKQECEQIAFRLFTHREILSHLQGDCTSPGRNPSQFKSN

| Ki [µM] | Compound |
| --- | --- |
| 21 ± 8 | O=C(Cn1ccnn1)N[C@H]1[C@H]([C@H](O)[C@H](O)CO)OC(C(=O)O)=C[C@@H]1O [Compound 25] |

same assay, conditions: NEU3 IC50, human NEU3

| IC50 [µM] | Compound |
| --- | --- |
| 24 ± 2 | CC(=O)N[C@@H]1C(N=[N+]=[N-])C=C(C(=O)O)OC1CNOCc1ccccc1 (some centres unmarked) [Compound 41] |
| 24 ± 11 | CC(=O)N[C@@H]1C(N=[N+]=[N-])C=C(C(=O)O)OC1CN(Cc1ccccc1)OCc1ccccc1 (some centres unmarked) [Compound 42] |
| 70 ± 20 | CC(=O)N[C@@H]1C(O)C=C(C(=O)O)OC1CNNCc1ccc(-c2ccccc2)cc1 (some centres unmarked) [Compound 47] |
| 54 ± 5 | CC(=O)N[C@@H]1C(N=[N+]=[N-])C=C(C(=O)O)OC1C(O)C(O)CO (some centres unmarked) [Compound 37] |
| 540 ± 30 | CC(=O)N[C@@H]1C(N)C=C(C(=O)O)OC1CNc1ccccc1 (some centres unmarked) [Compound 44] |
| 4.7 ± 0.3 | [N-]=[N+]=NCC(=O)N[C@@H]1C(O)C=C(C(=O)O)OC1C(O)C(O)CO (some centres unmarked) [Compound 49] |
| 20 ± 8 | CC(=O)N[C@@H]1C(N=[N+]=[N-])C=C(C(=O)O)OC1CNNc1ccccc1 (some centres unmarked) [Compound 43] |
| 370 ± 80 | CC(=O)N[C@@H]1C(N)C=C(C(=O)O)OC1CNc1ccccc1 (some centres unmarked) [Compound 45] |

| Compound | IC50 [µM] |
| --- | --- |
| CC(=O)N[C@@H]1C(O)C=C(C(=O)O)OC1C(O)C(O)CN=[N+]=[N-] (some centres unmarked) [Compound 48] | 19.7 ± 2.3 |
| CCC(CC)O[C@@H]1CC(C(=O)O)C=C(n2cc([C@]3(O)CCC4C5CCc6cc(O)ccc6C5CC[C@@]43C)nn2)[C@H]1NC(C)=O (some centres unmarked) [Compound 29] | 350 ± 100 |

same assay, conditions: read-out: NEU3 IC50; human NEU3

| Compound | IC50 [µM] |
| --- | --- |
| CC(=O)N[C@H]1[C@H]([C@@H](O)[C@@H](O)CNC(=O)C2CCCC2)OC(C(=O)O)=C[C@@H]1O [Compound 4] | > 1000 |
| CC(=O)N[C@H]1[C@H]([C@@H](O)[C@@H](O)CNC(=O)c2ccccc2)OC(C(=O)O)=C[C@@H]1O [Compound 3] | 320 |

Second part, the compound after the results:

| IC50 [µM] | Compound |
| --- | --- |
| 80 ± 10 | CC(=O)N[C@H]1C([C@@H](O)[C@@H](O)Cn2cc(CO)nn2)OC(C(=O)O)=C[C@@H]1O (some centres unmarked) [Compound 54] |
| > 1000 | CC(=O)N[C@H]1[C@H]([C@@H](O)[C@@H](O)CNC(=O)C2CC2)OC(C(=O)O)=C[C@@H]1O [Compound 5] |
| 300 ± 400 | CC(=O)N[C@H]1[C@H]([C@H](O)[C@H](O)Cn2cc(CO)nn2)OC(C(=O)O)=C[C@@H]1O [Compound 21] |
| 38 ± 2 | CC(=O)N[C@H]1C([C@@H](O)[C@@H](O)Cn2cc(CCO)nn2)OC(C(=O)O)=C[C@@H]1O (some centres unmarked) [Compound 55] |
| 70 ± 20 | CC(=O)N[C@H]1[C@H]([C@H](O)[C@H](O)Cn2ccnn2)OC(C(=O)O)=C[C@@H]1O [Compound 15] |
| > 1000 | CC(=O)N[C@H]1[C@H]([C@@H](O)[C@@H](O)CNC(=O)CC(C)C)OC(C(=O)O)=C[C@@H]1O [Compound 7] |
| > 1000 | CCCC(=O)NC[C@H](O)[C@H](O)[C@@H]1OC(C(=O)O)=C[C@H](O)[C@H]1NC(C)=O [Compound 6] |
| 23 ± 4 | CCCCCCc1cn(C[C@@H](O)[C@@H](O)[C@@H]2OC(C(=O)O)=C[C@H](O)[C@H]2NC(C)=O)nn1 [Compound 17] |
| 500 ± 200 | CC(=O)N[C@H]1[C@H]([C@H](O)[C@H](O)Cn2cc(CCCO)nn2)OC(C(=O)O)=C[C@@H]1O [Compound 23] |

target: human NEU2 (Homo sapiens (Human), UniProt Q9Y3R4); experiment: human NEU2 sialidase inhibition; conditions: NEU2 IC50, human NEU2
Sequence (Q9Y3R4 whole entry): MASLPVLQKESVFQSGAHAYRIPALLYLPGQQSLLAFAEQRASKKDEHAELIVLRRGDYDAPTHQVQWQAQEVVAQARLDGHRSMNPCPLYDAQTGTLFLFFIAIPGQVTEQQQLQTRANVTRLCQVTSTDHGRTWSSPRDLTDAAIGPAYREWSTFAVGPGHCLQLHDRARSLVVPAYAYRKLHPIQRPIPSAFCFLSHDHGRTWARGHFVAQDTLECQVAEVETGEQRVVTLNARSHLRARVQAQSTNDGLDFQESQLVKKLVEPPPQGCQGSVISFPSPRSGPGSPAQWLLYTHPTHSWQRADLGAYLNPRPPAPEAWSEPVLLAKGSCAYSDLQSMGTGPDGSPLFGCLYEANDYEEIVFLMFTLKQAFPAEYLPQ

| IC50 [µM] | Compound |
| --- | --- |
| 100 ± 13 | CC(=O)N[C@@H]1C(N)C=C(C(=O)O)OC1CNc1ccccc1 (some centres unmarked) [Compound 45] |

target: human NEU4 (Homo sapiens (Human), UniProt Q8WWR8); experiment: human NEU4 sialidase inhibition; conditions: not given
Sequence (Q8WWR8 whole entry): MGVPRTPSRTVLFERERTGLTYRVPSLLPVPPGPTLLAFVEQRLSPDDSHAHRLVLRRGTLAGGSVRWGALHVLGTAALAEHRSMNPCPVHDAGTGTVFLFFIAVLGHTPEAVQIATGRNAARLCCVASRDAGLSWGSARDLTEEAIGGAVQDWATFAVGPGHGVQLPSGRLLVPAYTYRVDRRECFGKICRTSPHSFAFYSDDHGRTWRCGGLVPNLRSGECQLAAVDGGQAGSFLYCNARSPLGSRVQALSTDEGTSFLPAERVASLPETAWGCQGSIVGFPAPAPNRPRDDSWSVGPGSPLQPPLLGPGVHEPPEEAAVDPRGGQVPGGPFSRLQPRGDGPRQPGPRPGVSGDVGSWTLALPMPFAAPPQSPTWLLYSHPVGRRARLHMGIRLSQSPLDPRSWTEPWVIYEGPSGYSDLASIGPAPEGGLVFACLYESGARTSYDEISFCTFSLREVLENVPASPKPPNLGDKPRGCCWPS

| IC50 [µM] | Compound |
| --- | --- |
| 350 ± 180 | CC(=O)N[C@@H]1C(N=[N+]=[N-])C=C(C(=O)O)OC1CN(Cc1ccccc1)OCc1ccccc1 (some centres unmarked) [Compound 42] |
| 200 ± 20 | CC(=O)N[C@@H]1C(O)C=C(C(=O)O)OC1CNNCc1ccc(-c2ccccc2)cc1 (some centres unmarked) [Compound 47] |
| 1000 ± 60 | CC(=O)N[C@@H]1C(N=[N+]=[N-])C=C(C(=O)O)OC1C(O)C(O)CO (some centres unmarked) [Compound 37] |
| 4.5 ± 0.1 | [N-]=[N+]=NCC(=O)N[C@@H]1C(O)C=C(C(=O)O)OC1C(O)C(O)CO (some centres unmarked) [Compound 49] |

| Compound | IC50 [µM] |
| --- | --- |
| CC(=O)N[C@@H]1C(O)C=C(C(=O)O)OC1C(O)C(O)CN=[N+]=[N-] (some centres unmarked) [Compound 48] | 60 ± 20 |
| CCC(CC)O[C@@H]1CC(C(=O)O)C=C(n2cc([C@]3(O)CCC4C5CCc6cc(O)ccc6C5CC[C@@]43C)nn2)[C@H]1NC(C)=O (some centres unmarked) [Compound 29] | 800 ± 400 |

same assay, conditions: read-out: NEU4 IC50; human NEU4

| Compound | IC50 [µM] |
| --- | --- |
| CC(=O)N[C@H]1[C@H]([C@@H](O)[C@@H](O)CNC(=O)C2CCCC2)OC(C(=O)O)=C[C@@H]1O [Compound 4] | > 1000 |
| CC(=O)N[C@H]1[C@H]([C@@H](O)[C@@H](O)CNC(=O)c2ccccc2)OC(C(=O)O)=C[C@@H]1O [Compound 3] | 810 |

Further lines, results first:

| IC50 [µM] | Compound |
| --- | --- |
| 825 | CC(=O)N[C@H]1[C@H]([C@@H](O)[C@@H](O)CNC(=O)C2CC2)OC(C(=O)O)=C[C@@H]1O [Compound 5] |
| 0.81 ± 0.04 | CC(=O)N[C@H]1C([C@@H](O)[C@@H](O)Cn2cc(CCO)nn2)OC(C(=O)O)=C[C@@H]1O (some centres unmarked) [Compound 55] |
| > 1000 | CC(=O)N[C@H]1[C@H]([C@@H](O)[C@@H](O)CNC(=O)CC(C)C)OC(C(=O)O)=C[C@@H]1O [Compound 7] |

target: human NEU1 (Homo sapiens (Human), UniProt Q99519); experiment: human NEU1 sialidase inhibition; conditions: not given

| IC50 [µM] | Compound |
| --- | --- |
| 360 ± 50 | CC(=O)N[C@@H]1C(N=[N+]=[N-])C=C(C(=O)O)OC1C(O)C(O)CO (some centres unmarked) [Compound 37] |
| 29 ± 0.5 | [N-]=[N+]=NCC(=O)N[C@@H]1C(O)C=C(C(=O)O)OC1C(O)C(O)CO (some centres unmarked) [Compound 49] |

| Compound | IC50 [µM] |
| --- | --- |
| CC(=O)N[C@@H]1C(O)C=C(C(=O)O)OC1C(O)C(O)CN=[N+]=[N-] (some centres unmarked) [Compound 48] | 620 ± 10 |

same assay, conditions: read-out: NEU1 IC50; human NEU1

| Compound | IC50 [µM] |
| --- | --- |
| CC(=O)N[C@H]1[C@H]([C@@H](O)[C@@H](O)CNC(=O)C2CCCC2)OC(C(=O)O)=C[C@@H]1O [Compound 4] | 135 |
| CC(=O)N[C@H]1[C@H]([C@@H](O)[C@@H](O)CNC(=O)c2ccccc2)OC(C(=O)O)=C[C@@H]1O [Compound 3] | 13 |

Second part, the compound after the results:

| IC50 [µM] | Compound |
| --- | --- |
| > 1000 | CC(=O)N[C@H]1C([C@@H](O)[C@@H](O)Cn2cc(CO)nn2)OC(C(=O)O)=C[C@@H]1O (some centres unmarked) [Compound 54] |
| 680 | CC(=O)N[C@H]1[C@H]([C@@H](O)[C@@H](O)CNC(=O)C2CC2)OC(C(=O)O)=C[C@@H]1O [Compound 5] |
| > 1000 | CC(=O)N[C@H]1C([C@@H](O)[C@@H](O)Cn2cc(CCO)nn2)OC(C(=O)O)=C[C@@H]1O (some centres unmarked) [Compound 55] |
| 565 | CC(=O)N[C@H]1[C@H]([C@@H](O)[C@@H](O)CNC(=O)CC(C)C)OC(C(=O)O)=C[C@@H]1O [Compound 7] |
| 32 | CCCC(=O)NC[C@H](O)[C@H](O)[C@@H]1OC(C(=O)O)=C[C@H](O)[C@H]1NC(C)=O [Compound 6] |
